Publication PMC4493534 (Theranostics, 2015)

Assays:
[1] = target: TSPO (Rattus norvegicus, UniProt P16257); details: ischemic rat brain, previously published data; cited from earlier work
[2] = tested on: TSPO; test: In vitro autoradiography of postmortem human brain; type: binding; details: postmortem human temporal cortex sections, 0.5 nM radioligand

Sequence of TSPO (Rattus norvegicus, UniProt P16257) (P16257 whole entry): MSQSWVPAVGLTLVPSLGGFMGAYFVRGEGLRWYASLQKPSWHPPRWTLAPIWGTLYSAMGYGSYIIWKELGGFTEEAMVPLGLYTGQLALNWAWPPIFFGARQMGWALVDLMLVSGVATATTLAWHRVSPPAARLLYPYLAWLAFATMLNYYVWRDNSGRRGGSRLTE

| SMILES | apparent BPND (SRTM) [1] | binding ratio for HAB-1 to that of LAB-1, RB(H/L) (also printed RB(L/H)) [2] |
| --- | --- | --- |
| CC[C@@H](C)N([11CH3])C(=O)c1cc2ccccc2c(-c2ccccc2Cl)n1 [(R)[^11C]PK11195] | 1.59 ± 0.33 | – |
| CCN(Cc1ccccc1)C(=O)Cn1c(=O)n(C)c2cnc(-c3ccccc3)nc21 [[^11C]AC-5216] | – | ~4.60 |
| COc1ccc(O[11CH3])c(CN(C(C)=O)c2cc(F)ccc2Oc2ccccc2)c1 [[^11C]DAA1106] | – | ~1.19 |
